Columns and labels:
[1] = molecular target: GDP-bound HRAS wild-type protein (Homo sapiens, UniProt P01112); assay: Binding to HRAS by surface plasmon resonance (SPR), Single Cycle Kinetics
[2] = molecular target: GDP-bound NRAS wild-type protein (Homo sapiens, UniProt P01111); assay: Binding to NRAS by surface plasmon resonance (SPR), Single Cycle Kinetics
[3] = SPR, GDP-bound HRAS wild-type vs GDP-bound KRAS wild-type
[4] = SPR, GDP-bound NRAS wild-type vs GDP-bound KRAS wild-type
[5] = KD ratio, GDP-bound HRAS wild-type vs GDP-bound KRAS wild-type, SPR
[6] = KD ratio, GDP-bound NRAS wild-type vs GDP-bound KRAS wild-type, SPR

GDP-bound NRAS wild-type protein, sequence (P01111 whole entry): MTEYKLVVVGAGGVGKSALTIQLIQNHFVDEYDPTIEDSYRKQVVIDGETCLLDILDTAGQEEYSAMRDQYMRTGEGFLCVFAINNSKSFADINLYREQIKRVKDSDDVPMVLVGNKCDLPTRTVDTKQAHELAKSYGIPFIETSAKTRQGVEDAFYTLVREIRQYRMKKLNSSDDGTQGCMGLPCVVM
GDP-bound HRAS wild-type protein, sequence (P01112 whole entry): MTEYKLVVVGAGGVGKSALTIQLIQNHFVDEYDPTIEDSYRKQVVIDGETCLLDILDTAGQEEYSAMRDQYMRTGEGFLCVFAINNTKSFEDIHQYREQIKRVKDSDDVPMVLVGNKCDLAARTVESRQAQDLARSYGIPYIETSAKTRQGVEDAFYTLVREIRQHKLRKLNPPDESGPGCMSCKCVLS

In the case of `CCO[C@@H]1C[C@H]2C(=O)NC3(CC(C)(C)C3)C(=O)N(C)[C@@H](C(CC)CC)C(=O)N(C)[C@H](C(=O)N(C)C)CC(=O)N(C)[C@H]3CC/C=C/c4ccc(cc4)C[C@@H](C(=O)N(C)CC(=O)N[C@@H](CCc4cc(F)c(C(F)(F)F)c(F)c4)C(=O)N2C1)N1CC/C=C\C[C@@H](C1=O)N(C)C(=O)CN(C)C(=O)[C@H]([C@@H](C)CC)NC3=O` [PP2586], the “HRAS/KRAS (ratio of KD value with respect to GDP-bound HRAS wild-type protein to KD value with respect to KRAS)” value ([1]; class symbols) is reported as “B (a compound having 3 or more and less than 10 is denoted as B)” and the “NRAS/KRAS (ratio of KD value with respect to GDP-bound NRAS wild-type protein to KD value with respect to KRAS)” value ([2]; class symbols) is reported as “A (a compound having 10 or more and less than 20 is denoted as A)”.

`C#CC[C@H]1C(=O)N[C@@H]([C@@H](C)CC)C(=O)N(C)CC(=O)N(C)[C@H]2C/C=C\CCN(C2=O)[C@@H](Cc2ccc(C(F)(F)F)cc2)C(=O)N(C)CC(=O)N[C@@H](CCc2ccc(C(F)(F)F)c(OC)c2)C(=O)N2C[C@@H](C)C[C@H]2C(=O)NC2(CC(C)(C)C2)C(=O)N(C)[C@@H](C2CCCC2)C(=O)N(C)[C@H](C(=O)N(C)CC)CC(=O)N1C` [PP2055] was tested, and the “HRAS/KRAS (ratio of KD value with respect to HRAS to KD value with respect to KRAS)” value [1, 3] was “B (a compound having 3 or more and less than 10 is denoted as B)” and the “NRAS/KRAS (ratio of KD value with respect to NRAS to KD value with respect to KRAS)” value [2, 4] was “A (a compound having 10 or more and less than 20 is denoted as A)”.

In the case of `CCC[C@H]1C(=O)N[C@@H]([C@@H](C)CC)C(=O)N(C)CC(=O)N(C)[C@H]2C/C=C\CCN(C2=O)[C@@H](Cc2ccc(C)cc2)C(=O)N(C)CC(=O)N[C@@H](CCc2ccc(C(F)(F)F)c(OC)c2)C(=O)N2C[C@H](OCC)C[C@H]2C(=O)NC2(CC(C)(C)C2)C(=O)N(C)[C@@H](C2CCCC2)C(=O)N(C)[C@H](C(=O)N(C)C)CC(=O)N1C` [PP1892], the “HRAS/KRAS (ratio of KD value for HRAS to KD value for KRAS)” value [1, 5] is reported as “B (a compound having 3 or more and less than 10 is denoted as B)” and the “NRAS/KRAS (ratio of KD value for NRAS to KD value for KRAS)” value [2, 6] is reported as “A (a compound having 10 or more and less than 20 is denoted as A)”.

For `CC[C@H](C)[C@@H]1NC(=O)[C@H](CC(C)C)N(C)C(=O)C[C@@H](C(=O)N2CCOCC2)NC(=O)[C@H](C2CCCC2)N(C)C(=O)C2(CCCC2)NC(=O)[C@@H]2CCCN2C(=O)[C@H](CCc2cc(F)c(C(F)(F)F)c(F)c2)NC(=O)CN(C)C(=O)[C@H](Cc2ccc(C(F)(F)F)cc2)N2CCCCC[C@@H](C2=O)N(C)C(=O)CN(C)C1=O` [PP0479], the “HRAS/KRAS (ratio of KD value with respect to GDP-bound HRAS wild-type protein to KD value with respect to KRAS)” value ([1]; SPR) was “B (a compound having 3 or more and less than 10 is denoted as B)” and the “NRAS/KRAS (ratio of KD value with respect to GDP-bound NRAS wild-type protein to KD value with respect to KRAS)” value ([2]; SPR) was “B (a compound having 3 or more and less than 10 is denoted as B)”.

`CCCN(C)C(=O)[C@@H]1CC(=O)N(C)[C@@H](C2CCC2)C(=O)N[C@@H]([C@@H](C)CC)C(=O)N(C)CC(=O)N(C)[C@H]2C/C=C\CCN(C2=O)[C@@H](Cc2ccc(C(F)(F)F)cc2)C(=O)N(C)CC(=O)N[C@@H](CCc2ccc(C(F)(F)F)c(OC)c2)C(=O)N2C[C@@H](C)C[C@H]2C(=O)NC2(CCC2)C(=O)N(C)[C@@H](C2CCCC2)C(=O)N1C` [PP2072] was tested, and the “HRAS/KRAS (ratio of KD value with respect to HRAS to KD value with respect to KRAS)” value [1, 3] was “A (a compound having 10 or more and less than 20 is denoted as A)” and the “NRAS/KRAS (ratio of KD value with respect to NRAS to KD value with respect to KRAS)” value [2, 4] was “A (a compound having 10 or more and less than 20 is denoted as A)”.

With `CCO[C@@H]1C[C@H]2C(=O)NC3(CCC3)C(=O)N(C)[C@@H](C3CCCC3)C(=O)N(C)[C@H](C(=O)N3CCOCC3)CC(=O)N(C)[C@@H](Cc3cccs3)C(=O)N[C@@H]([C@@H](C)CC)C(=O)N(C)CC(=O)N(C)[C@H]3CCCCCN(C3=O)[C@@H](Cc3ccc(F)cc3)C(=O)N(C)CC(=O)N[C@@H](CCc3cc(F)c(C(F)(F)F)c(F)c3)C(=O)N2C1` [PP1183] the “HRAS/KRAS (ratio of KD value with respect to HRAS to KD value with respect to KRAS)” value [1, 5] was “B (a compound having 3 or more and less than 10 is denoted as B)” and the “NRAS/KRAS (ratio of KD value with respect to NRAS to KD value with respect to KRAS)” value [2, 6] was “B (a compound having 3 or more and less than 10 is denoted as B)”.

— US20250230193A1, “CYCLIC COMPOUND HAVING SELECTIVE KRAS INHIBITORY EFFECT ON HRAS AND NRAS” (CHUGAI SEIYAKU KABUSHIKI KAISHA, priority 2022, published 2025)
